According to patent US20080214678A1, “Biopesticide Comprising a Composition Rich in Diallyl Polysulphides” (priority 2003, published 2008):
In brackets after ≈: the same amount, converted by molar mass. Like-named read-outs stand apart in the source and are kept apart here.

Assays:
[1] = system: clothes moth Tineola bisselliella; assay: whole plant or invertebrate; type: in vivo; conditions: for insecticidal activity: closed space, insects tested; for LC50: Tineola bisselliella
Description: (§1) The pesticidal activity of the extracts is measured in a closed space on adult insects. Each value represents the mean of three experiments, each involving 30 insects representative of three different insect orders: • lepidoptera (the clothes moth Tineola bisselliella), • isoptera (the Saintonge termite Reticulitermes santonensis), and • coleoptera (the bean weevil Callosobruchus maculatus)

[2] = system: bean weevil Callosobruchus maculatus; assay: Pesticidal activity in a closed space on adult weevil (LC50); type: in vivo
Description: as §1

[3] = ambient temperature storage; cited from earlier work
[4] = adult insects, closed space, 24 h of treatment, NQ = non-quantifiable due to the absence of activity, read-out: Weevil LC50

SMILES | insecticidal activity [1] | LC50 [2, 4] | stability at ambient temperature [3] | LC50 ([1]; 24 h, read-out: Mite LC50) | LC50 ([1]; 24 h, read-out: Mite LC50 observed) | LC50 ([1]; read-out: Mite LC50 calculated) | LC50 ([2]; adult insects, closed space, 24 h, NQ = no activity, read-out: Weevil LC50 observed) | LC50 ([2]; theoretical, from total DASn content compared with DAS2 activity, read-out: Weevil LC50 calculated)
C=CCS[S+]([O-])CC=C (stereo not shown) [TiA2, allicin] | show an insecticidal activity | 0.16 µg/mL (≈ 0.986 µM) | low stability |  |  |  |  | 
C=CCSSCC=C [DAS2, diallyl disulfide] | show an insecticidal activity | 0.5 µg/mL (≈ 3.42 µM) |  | 0.02 µg/mL (≈ 0.137 µM) | 0.02 µg/mL (≈ 0.137 µM) | 0.02 µg/mL (≈ 0.137 µM) | 0.5 µg/mL (≈ 3.42 µM) | 0.5 µg/mL (≈ 3.42 µM)
